pIC50: −log10 of the molar value.
Tests used:
Assay in all cases: MTT assay panel
Format in all cases: cell-based
PATU-8902 = PATU-8902 cells, 72 hours
Protocol: (§1) Compound 124 was further tested against a panel of selected solid and hematological cancer cell lines and selected normal cell lines in an MTT assay. Briefly, the various cell lines above were plated at different densities on day 1. […] Cell Titer AQueous One was added to each well, and the plates were read in a plate reader at OD 495.

SNU-398 = conditions: Homo sapiens; SNU-398 cells, 72 hours
Protocol: as §1

MDA-MB-231 = conditions: Homo sapiens; MDA-MB-231 cells, 72 hours
Protocol: as §1

3T3 = conditions: Mus musculus, NIH3T3; 3T3 cells, 72 hours
Protocol: as §1

MV-4-11 = conditions: Homo sapiens, MV4-11; MV-4-11 cells, 72 hours
Protocol: as §1

HTB-38 = HTB-38 cells, 72 hours
Protocol: as §1

NCI-H520 = conditions: Homo sapiens; NCI-H520 cells, 72 hours
Protocol: as §1

TFK-1 = TFK-1 cells, 72 hours
Protocol: as §1

HCT-15 = conditions: Homo sapiens; HCT-15 cells, 72 hours
Protocol: as §1

MINO = conditions: Homo sapiens; MINO cells, 72 hours
Protocol: as §1

KG-1 = conditions: Homo sapiens; KG-1 cells, 72 hours
Protocol: as §1

MCF7 = conditions: Homo sapiens; MCF7 cells, 72 hours
Protocol: as §1

HPAF-II = conditions: Homo sapiens; HPAF-II cells, 72 hours
Protocol: as §1

MM1R = conditions: MM.1R; MM1R cells, 72 hours
Protocol: as §1

Tera-1 = Tera-1 cells, 72 hours
Protocol: as §1

BL-2 = conditions: BL2; BL-2 cells, 72 hours
Protocol: as §1

U-266 = conditions: Homo sapiens; U-266 cells, 72 hours
Protocol: as §1

MS751 = MS751 cells, 72 hours
Protocol: as §1

SW-48 = conditions: Homo sapiens, SW48; SW-48 cells, 72 hours
Protocol: as §1

SW-900 = conditions: Homo sapiens, SW900; SW-900 cells, 72 hours
Protocol: as §1

NCI-H747 = conditions: Homo sapiens; NCI-H747 cells, 72 hours
Protocol: as §1

NCI-H508 = conditions: Homo sapiens; NCI-H508 cells, 72 hours
Protocol: as §1

NCI-H1299 = conditions: Homo sapiens; NCI-H1299 cells, 72 hours
Protocol: as §1

SK-CO-1 = conditions: Homo sapiens; SK-CO-1 cells, 72 hours
Protocol: as §1

C6 = conditions: Rattus norvegicus; C6 cells, 72 hours
Protocol: as §1

HCC-4006 = conditions: Homo sapiens, HCC4006; HCC-4006 cells, 72 hours
Protocol: as §1

SHSY5Y = conditions: Homo sapiens, SH-SY5Y; SHSY5Y cells, 72 hours
Protocol: as §1

LS-180 = conditions: Homo sapiens, LS180; LS-180 cells, 72 hours
Protocol: as §1

NCI-H820 = NCI-H820 cells, 72 hours
Protocol: as §1

SW-1116 = conditions: Homo sapiens; SW-1116 cells, 72 hours
Protocol: as §1

NCI-H226 = conditions: Homo sapiens; NCI-H226 cells, 72 hours
Protocol: as §1

IMR-90 = conditions: Homo sapiens; IMR-90 cells, 72 hours
Protocol: as §1

SKOV3 = conditions: Homo sapiens, SK-OV-3; SKOV3 cells, 72 hours
Protocol: as §1

NCI-H69 = conditions: Homo sapiens; NCI-H69 cells, 72 hours
Protocol: as §1

LoVo = conditions: Homo sapiens; LoVo cells, 72 hours
Protocol: as §1

HPAC = conditions: Homo sapiens; HPAC cells, 72 hours
Protocol: as §1

RKO = conditions: Homo sapiens; RKO cells, 72 hours
Protocol: as §1

NCI-H2122 = conditions: Homo sapiens; NCI-H2122 cells, 72 hours
Protocol: as §1

SW-948 = conditions: Homo sapiens, SW948; SW-948 cells, 72 hours
Protocol: as §1

NCI-H358 = conditions: Homo sapiens; NCI-H358 cells, 72 hours
Protocol: as §1

pIC50 (SNU-398): 6.01
pIC50 (MDA-MB-231): 6.92
pIC50 (MV-4-11): 7.00
pIC50 (NCI-H520): 5.89
pIC50 (HCT-15): 6.34
pIC50 (MCF7): 6.17
pIC50 (MM1R): 8.10
pIC50 (SW-48): 6.92
pIC50 (SW-900): 5.73
pIC50 (NCI-H747): 7.15
pIC50 (NCI-H508): 6.07
pIC50 (NCI-H1299): 7.30
pIC50 (SK-CO-1): 6.37
pIC50 (HCC-4006): 7.70
pIC50 (SHSY5Y): 7.30
pIC50 (NCI-H820): 5.47
pIC50 (SW-1116): 6.39
pIC50 (NCI-H226): 7.52
pIC50 (SKOV3): < 5.00
pIC50 (NCI-H69): 5.79
pIC50 (LoVo): 6.17
pIC50 (NCI-H2122): 6.08
pIC50 (SW-948): < 5.00
pIC50 (NCI-H358): 6.38
Compound: NC(=O)/C(=C/n1cnc(-c2cc(C(F)(F)F)cc(C(F)(F)F)c2)n1)c1cncnc1 [Compound 124, (E)-3-(3-(3,5-bis(trifluoromethyl)phenyl)-1H-1,2,4-triazol-1-yl)-2-(pyrimidin-5-yl)acrylamide]
pIC50 (PATU-8902): 6.39
pIC50 (3T3): 5.96
pIC50 (HTB-38): < 5.00
pIC50 (TFK-1): < 5.00
pIC50 (MINO): 7.70
pIC50 (KG-1): 7.05
pIC50 (HPAF-II): < 5.00
pIC50 (Tera-1): 6.82
pIC50 (BL-2): 7.52
pIC50 (U-266): 6.64
pIC50 (MS751): 6.40
pIC50 (C6): 6.82
pIC50 (LS-180): < 5.00
pIC50 (IMR-90): < 5.00
pIC50 (HPAC): 5.00
pIC50 (RKO): 6.35

Reference: patent US11945794B2, “Nuclear transport modulators and uses thereof” (Karyopharm Therapeutics Inc., priority 2013, dated 2024)
